Laboratory results: patent US9328099B2, “Cyanomethylpyrazole carboxamides as janus kinase inhibitors” (Merck Sharp & Dohme Corp., priority 2011, dated 2016)

Columns and labels:
JAK2 = JAK2 (Homo sapiens (Human), UniProt O60674); experiment: Jak Biochemical HTRF Assay, JAK2; settings: HTRF biochemical assay, GST-tagged catalytic domain; top concentration tested […]
Excerpt: (§1) Jak Biochemical HTRF Assay Protocol
(§2) Subsequent reagent additions employed an Agilent Bravo.

JAK1 = JAK1 (Homo sapiens (Human), UniProt P23458); experiment: Jak Biochemical HTRF Assay, JAK1; settings: HTRF biochemical assay, GST-tagged catalytic domain; top concentration tested […]; read-out: JAK1 IC50
Excerpt: as §1, §2

Sequence of JAK1 (P23458 875-1153): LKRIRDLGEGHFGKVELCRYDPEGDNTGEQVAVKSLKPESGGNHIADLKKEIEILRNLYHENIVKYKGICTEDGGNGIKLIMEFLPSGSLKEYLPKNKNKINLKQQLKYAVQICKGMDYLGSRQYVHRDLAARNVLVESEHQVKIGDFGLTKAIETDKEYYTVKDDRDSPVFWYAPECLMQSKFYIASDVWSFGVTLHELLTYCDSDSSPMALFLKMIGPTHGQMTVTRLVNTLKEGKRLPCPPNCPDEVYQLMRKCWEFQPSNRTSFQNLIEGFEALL
Sequence of JAK2 (O60674 849-1124): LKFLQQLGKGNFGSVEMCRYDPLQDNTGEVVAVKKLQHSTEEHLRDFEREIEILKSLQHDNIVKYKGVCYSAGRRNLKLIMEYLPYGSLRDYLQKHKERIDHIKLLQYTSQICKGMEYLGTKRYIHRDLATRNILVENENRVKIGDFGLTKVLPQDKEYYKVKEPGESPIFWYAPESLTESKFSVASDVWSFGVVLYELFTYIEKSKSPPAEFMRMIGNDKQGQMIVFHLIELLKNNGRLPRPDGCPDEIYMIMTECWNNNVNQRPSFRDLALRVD

## CC(C)NC(=O)N1CCC(CC#N)(n2cc(C(N)=O)c(Nc3ccc(S(=O)(=O)C(F)(F)F)cc3)n2)CC1 [Example 38-44, 4-(4-carbamoyl-3-(4-(trifluoromethylsulfonyl)phenylamino)-1H-pyrazol-1-yl)-4-(cyanomethyl)-N-isopropylpiperidine-1-carboxamide]
JAK2
  IC50: 2 nM
JAK1
  IC50: 0.1 nM

## Cc1ccc(NC(=O)N2CC(CC#N)(n3cc(C(N)=O)c(Nc4ccc(S(C)(=O)=O)cc4)n3)C2)cc1 [Example 38-41, 1-{3-(cyanomethyl)-1-[(4-methylphenyl)carbamoyl]azetidin-3-yl}-3-{[4-(methylsulfonyl)phenyl]amino}-1H-pyrazole-4-carboxamide]
JAK2
  IC50: 175 nM
JAK1
  IC50: 13 nM

## CCOc1ccccc1CN1CCC(CC#N)(n2cc(C(N)=O)c(Nc3ccccc3)n2)CC1 [Example 21-16, 1-[4-(cyanomethyl)-1-(2-ethoxybenzyl)piperidin-4-yl]-3-(phenylamino)-1H-pyrazole-4-carboxamide]
JAK2
  IC50: 842 nM
JAK1
  IC50: 69 nM

## N#CCC1(n2cc(C(N)=O)c(Nc3ccccc3)n2)CCN(Cc2ccc3c(c2)OCO3)CC1 [Example 21-10, 1-[1-(1,3-benzodioxol-5-ylmethyl)-4-(cyanomethyl)piperidin-4-yl]-3-(phenylamino)-1H-pyrazole-4-carboxamide]
JAK2
  IC50: 78 nM
JAK1
  IC50: 8 nM

## N#CCC1(n2cc(C(N)=O)c(Nc3ccc(F)cc3)n2)CCC(N2CCC(F)(F)CC2)CC1 (stereo not drawn) [Example 40-70, Cis or trans 1-[1-(cyanomethyl)-4-(4,4-difluoropiperidin-1-yl)cyclohexyl]-3-[(4-fluorophenyl)amino]-1H-pyrazole-4-carboxamide]
JAK2
  IC50: 9 nM
JAK1
  IC50: 0.2 nM

## CC(C)[C@@H](O)C(=O)N1CCC(CC#N)(n2cc(C(N)=O)c(Nc3ccnc(F)c3)n2)CC1 [Example 34-46, 1-{4-(cyanomethyl)-1-[(2R)-2-hydroxy-3-methylbutanoyl]piperidin-4-yl}-3-[(2-fluoropyridin-4-yl)amino]-1H-pyrazole-4-carboxamide]
JAK2
  IC50: 139 nM
JAK1
  IC50: 2 nM

## N#CCC1(n2cc(C(N)=O)c(Nc3ccnc(F)c3)n2)CCC(NCc2ccccc2Cl)CC1 (stereo not drawn) [Example 41-16, Cis or trans 1-{4-[(2-chlorobenzyl)amino]-1-(cyanomethyl)cyclohexyl}-3-[(2-fluoropyridin-4-yl)amino]-1H-pyrazole-4-carboxamide]
JAK2
  IC50: 912 nM
JAK1
  IC50: 24 nM

## N#CCC1(n2cc(C(N)=O)c(Nc3ccc(S(=O)(=O)C(F)F)cc3)n2)CCC(NC2CCOCC2)CC1 (stereo not drawn) [Example 40-26, Cis or trans 1-[1-(cyanomethyl)-4-(tetrahydro-2H-pyran-4-ylamino)cyclohexyl]-3-({4-[(difluoromethyl)sulfonyl]phenyl}amino)-1H-pyrazole-4-carboxamide]
JAK2
  IC50: 5 nM
JAK1
  IC50: 0.08 nM

## CC(C)(C)OC(=O)N1CCC(CC#N)(n2cc(C(N)=O)c(Nc3ccnc(N)c3)n2)CC1 [Example 9-14, tert-butyl 4-{3-[(2-aminopyridin-4-yl)amino]-4-carbamoyl-1H-pyrazol-1-yl}-4-(cyanomethyl)piperidine-1-carboxylate]
JAK2
  IC50: 3 nM
JAK1
  IC50: 0.2 nM

## COc1ccc(CN2CCC(CC#N)(n3cc(C(N)=O)c(Nc4ccnc(F)c4)n3)CC2)cc1 [Example 22-65, 1-[4-(cyanomethyl)-1-(4-methoxybenzyl)piperidin-4-yl]-3-[(2-fluoropyridin-4-yl)amino]-1H-pyrazole-4-carboxamide]
JAK2
  IC50: 16 nM
JAK1
  IC50: 1 nM

## N#CCC1(n2cc(C(N)=O)c(Nc3ccnc(F)c3)n2)CCN(Cc2ccccc2Cl)CC1 [Example 22-59, 1-[1-(2-chlorobenzyl)-4-(cyanomethyl)piperidin-4-yl]-3-[(2-fluoropyridin-4-yl)amino]-1H-pyrazole-4-carboxamide]
JAK2
  IC50: 7 nM
JAK1
  IC50: 0.2 nM

## N#CCC1(n2cc(C(N)=O)c(Nc3ccnc(F)c3)n2)CCN(C(=O)OCC(F)(F)F)CC1 [Example 30-1, 2,2,2-Trifluoroethyl 4-{4-carbamoyl-3-[(2-fluoropyridin-4-yl)amino]-1H-pyrazol-1-yl}-4-(cyanomethyl)piperidine-1-carboxylate]
JAK2
  IC50: 8 nM
JAK1
  IC50: 0.2 nM

## N#CCC1(n2cc(C(N)=O)c(Nc3ccc(F)cc3)n2)CCN(C(=O)OC2CCC2)CC1 [Example 30-4, cyclobutyl 4-(4-carbamoyl-3-(4-fluorophenylamino)-1H-pyrazol-1-yl)-4-(cyanomethyl)piperidine-1-carboxylate]
JAK2
  IC50: 33 nM
JAK1
  IC50: 0.9 nM

## N#CCC1(n2cc(C(N)=O)c(Nc3ccc(F)cc3)n2)CCN(Cc2cnccn2)CC1 [Example 22-52, 1-[4-(cyanomethyl)-1-(pyrazin-2-ylmethyl)piperidin-4-yl]-3-[(4-fluorophenyl)amino]-1H-pyrazole-4-carboxamide]
JAK2
  IC50: 25 nM
JAK1
  IC50: 1 nM

## N#CCC1(n2cc(C(N)=O)c(Nc3ccccc3)n2)CCN(CC2CCCCC2)CC1 [Example 21-9, 1-[4-(cyanomethyl)-1-(cyclohexylmethyl)piperidin-4-yl]-3-(phenylamino)-1H-pyrazole-4-carboxamide]
JAK2
  IC50: 319 nM
JAK1
  IC50: 15 nM

## N#CCC1(n2cc(C(N)=O)c(Nc3ccnc(F)c3)n2)CCC(NCc2ccccc2Cl)CC1 (stereo not drawn) [Example 41-10, Cis or trans 1-{4-[(2-chlorobenzyl)amino]-1-(cyanomethyl)cyclohexyl}-3-[(2-fluoropyridin-4-yl)amino]-1H-pyrazole-4-carboxamide]
JAK2
  IC50: 2 nM
JAK1
  IC50: 0.03 nM

## N#CCC1(n2cc(C(N)=O)c(Nc3ccccc3)n2)CCN(Cc2c(F)cccc2F)CC1 [Example 21-23, 1-[4-(cyanomethyl)-1-(2,6-difluorobenzyl)piperidin-4-yl]-3-(phenylamino)-1H-pyrazole-4-carboxamide]
JAK2
  IC50: 13 nM
JAK1
  IC50: 0.8 nM

## Cc1ccc(N2CCC(CC#N)(n3cc(C(N)=O)c(Nc4ccc(F)cc4)n3)CC2)cc1F [Example 3-34, 1-[4-(cyanomethyl)-1-(3-fluoro-4-methylphenyl)piperidin-4-yl]-3-[(4-fluorophenyl)amino]-1H-pyrazole-4-carboxamide]
JAK2
  IC50: 215 nM
JAK1
  IC50: 5 nM

## N#CCC1(n2cc(C(N)=O)c(Nc3ccccc3)n2)CCN(C(=O)OCc2cccc(F)c2)CC1 [Example 30-32, 3-fluorobenzyl 4-[4-carbamoyl-3-(phenylamino)-1H-pyrazol-1-yl]-4-(cyanomethyl)piperidine-1-carboxylate]
JAK2
  IC50: 88 nM
JAK1
  IC50: 4 nM

## N#CCC1(n2cc(C(N)=O)c(Nc3ccccc3)n2)CCN(S(=O)(=O)c2ccc(-c3ccccc3)cc2)CC1 [Example 37-14, 1-[1-(biphenyl-4-ylsulfonyl)-4-(cyanomethyl)piperidin-4-yl]-3-(phenylamino)-1H-pyrazole-4-carboxamide]
JAK2
  IC50: 24 nM
JAK1
  IC50: 5 nM

## CC(CF)(CF)C(=O)N1CCC(CC#N)(n2cc(C(N)=O)c(Nc3ccnc(F)c3)n2)CC1 [Example 34-41, 1-{4-(cyanomethyl)-1-[3-fluoro-2-(fluoromethyl)-2-methylpropanoyl]piperidin-4-yl}-3-[(2-fluoropyridin-4-yl)amino]-1H-pyrazole-4-carboxamide]
JAK2
  IC50: 48 nM
JAK1
  IC50: 3 nM

## N#CCC1(n2cc(C(N)=O)c(Nc3ccccc3)n2)CCN(C(=O)c2cccc3ccccc23)CC1 [Example 34-25, 1-[4-(cyanomethyl)-1-(naphthalene-1-ylcarbonyl)piperidin-4-yl]-3-(phenylamino)-1H-pyrazole-4-carboxamide]
JAK2
  IC50: 350 nM
JAK1
  IC50: 28 nM

## N#CCC1(n2cc(C(N)=O)c(Nc3ccc(S(=O)(=O)C(F)F)cc3)n2)CCC(NCC(F)F)CC1 (stereo not drawn) [Example 40-84, Cis or trans 1-{1-(cyanomethyl)-4-[(2,2-difluoroethyl)amino]cyclohexyl}-3-({4-[(difluoromethyl)sulfonyl]phenyl}amino)-1H-pyrazole-4-carboxamide]
JAK2
  IC50: 3 nM
JAK1
  IC50: 0.04 nM

## N#CCC1(n2cc(C(N)=O)c(Nc3cncc(Cl)c3)n2)CCN(C(=O)OCC(F)(F)F)CC1 [Example 10-9, 2,2,2-trifluoroethyl 4-{4-carbamoyl-3-[(5-chloropyridin-3-yl)amino]-1H-pyrazol-1-yl}-4-(cyanomethyl)piperidine-1-carboxylate]
JAK2
  IC50: 15 nM
JAK1
  IC50: 0.4 nM

## N#CCC1(n2cc(C(N)=O)c(Nc3ccc(F)cc3)n2)CCN(Cc2cccc3[nH]ccc23)CC1 [Example 22-57, 1-[4-(cyanomethyl)-1-(1H-indol-4-ylmethyl)piperidin-4-yl]-3-[(4-fluorophenyl)amino]-1H-pyrazole-4-carboxamide]
JAK2
  IC50: 280 nM
JAK1
  IC50: 14 nM

## COc1ccc(N2CCC(CC#N)(n3cc(C(N)=O)c(Nc4ccc(F)cc4)n3)CC2)cc1OC [Example 3-1, 1-[4-(Cyanomethyl)-1-(3,4-dimethoxyphenyl)piperidin-4-yl]-3-[(4-fluorophenyl)amino]-1H-pyrazole-4-carboxamide]
JAK2
  IC50: 154 nM
JAK1
  IC50: 4 nM

## N#CCC1(n2cc(C(N)=O)c(Nc3ccc(F)cc3)n2)CCC(N2CCC2)CC1 (stereo not drawn) [Example 40-80, Cis or trans 1-[4-azetidin-1-yl-1-(cyanomethyl)cyclohexyl]-3-[(4-fluorophenyl)amino]-1H-pyrazole-4-carboxamide]
JAK2
  IC50: 325 nM
JAK1
  IC50: 14 nM

## N#CCC1(n2cc(C(N)=O)c(Nc3ccccc3)n2)CN(C(=O)Nc2cc(F)ccc2F)C1 [Example 38-10, 1-{3-(cyanomethyl)-1-[(2,5-difluorophenyl)carbamoyl]azetidin-3-yl}-3-(phenylamino)-1H-pyrazole-4-carboxamide]
JAK2
  IC50: 158 nM
JAK1
  IC50: 5 nM

## N#CCC1(n2cc(C(N)=O)c(Nc3ccnc(F)c3)n2)CCC(Nc2cc(F)ccc2F)CC1 (stereo not drawn) [Example 40-63, Cis or trans 1-{1-(cyanomethyl)-4-[(2,5-difluorophenyl)amino]cyclohexyl}-3-[(2-fluoropyridin-4-yl)amino]-1H-pyrazole-4-carboxamide]
JAK2
  IC50: 1 nM
JAK1
  IC50: 0.03 nM
